# Assay results as given in ChEMBL document CHEMBL3507680, “University of Dundee, Gates Library screen for HepG2 cell viability”.
# Assay: Human HepG2 cell viability assay in 384 well format
# Format: toxicity, cell-based
# Design: dose 125 nL, time 70.5 hour; concentration not given beside the values
# Settings: HepG2 cells, read-out: Inhibition
row,SMILES,cytotoxicity at 70.5 h [%]
1,CC(C)(C)C(=O)NCCCC(=O)NC(C)(C)c1ccc2c(c1)OCO2,3.16
2,COc1ccc(OCCNc2cccc(C(=O)N3CCOCC3)c2)cc1,-3.69
3,CC(C)(C)C(=O)NCCC(=O)NC(C)(C)c1ccc2c(c1)OCO2,-3.54
4,O=C(C(CNCc1cccc(O)c1)c1ccccc1)N1CCOCC1 (stereo not given),-4.48
5,COCC(NC(=O)c1ccoc1C)c1cccc(C(F)(F)F)c1 (stereo not given),-2.1
6,O=C(C(CNCc1ccccc1O)c1ccccc1)N1CCOCC1 (stereo not given),-2.58
7,CC(=O)N1CCc2cc(Cl)cc(Cl)c2C1,-5.27
8,COCCOCC(=O)N1CCc2cc(Cl)cc(Cl)c2C1,-6.61
9,COC(=O)NCC(=O)N1CCc2cc(Cl)cc(Cl)c2C1,-1.77
10,CC(C)c1noc(CN(Cc2ccccc2)C2CC2)n1,0.0143
11,CCOc1cc(CN(C)Cc2ccccc2)ccc1OC(F)F,-6.62
12,CSc1ccc(CN(C)Cc2noc(C(C)(C)C)n2)cc1,-6.11
13,CCOc1cc(CN(C)CCCO)ccc1OC(F)F,-6.49
14,COCC(NC(=O)c1cccnc1)c1cccc(C(F)(F)F)c1 (stereo not given),-5.85
15,CCc1nc(C2CCCN2Cc2nc(C(C)(C)C)no2)no1 (stereo not given),2.43
16,CC(C)c1noc(CN(Cc2ccc(F)cc2)C2CC2)n1,-8.41
17,CN(Cc1noc(C(C)(C)C)n1)Cc1ccccc1N1CCCCC1,-6.13
18,Cc1cc(CN2CCc3cncnc3C2)on1,9.54
19,Cc1cnn(CCNCC(O)c2ccc3c(c2)OCCO3)c1 (stereo not given),4.42
20,CCN(CC)c1ncc(CNC2CCc3nc(C)nn3C2)s1 (stereo not given),4.79
21,CN(CC(N)=O)C(=O)c1cc(Cl)c(Cl)n1C,-5.05
22,Cc1nnc(C2Cc3ccccc3CN2Cc2ncc(Cl)n2C)o1 (stereo not given),-13.3
23,C=C(C)CN1CCCC(NS(C)(=O)=O)C1 (stereo not given),-5.08
24,CNC(=O)CN(C)C(=O)c1cc(Cl)c(Cl)n1C,17.1

row,SMILES,cytotoxicity at 70.5 h [%]
1,CCNC(=O)NC(=O)CN1CCCC1c1nc(C2CCCCC2)co1 (stereo not given),-7.64
2,NC(=O)NC(=O)CCN1CCCC1c1nc(C2CCCCC2)co1 (stereo not given),13.4
3,COCCCn1ccc(NC(=O)NCc2cccc(N(C)C)c2)n1,-5.16
4,CN(C)C(=O)CCCn1ccc(NC(=O)NCc2cccc(F)c2)n1,-16.5
5,CCc1nc2n(n1)CC(NCc1cnc(N(CC)CC)s1)CC2 (stereo not given),-18.7
6,Cc1cccc(CNC(=O)Nc2ccn(CCN(C)C)n2)c1,-7.32
7,CN(CC(=O)Nc1cc(-c2cc(Cl)cc(Cl)c2)[nH]n1)S(C)(=O)=O,-5.73
8,Cn1ccnc1CN(CCCO)CC(F)(F)F,0.0577
9,CCc1cc(CNCc2ccccc2N(C)C2CCN(C)CC2)on1,-1.28
10,CN(C)CCn1ccc2cc(NC(=O)NCc3ncnn3C)ccc21,-3.79
11,O=C(NCCO)NCC(c1ccccc1)N1CCc2sccc2C1 (stereo not given),-13.1
12,CC(NC(=O)Nc1nccs1)c1ccncc1 (stereo not given),-10.5
13,CC(NC(=O)Nc1nccs1)c1cccnc1 (stereo not given),-2.43
14,Cc1cccc(N2N=C(C(=O)NC(C)Cn3cccn3)CCC2=O)c1 (stereo not given),-14.7
15,Cc1ccc(C(=O)NCC2COCCO2)c(=O)[nH]1 (stereo not given),-17
16,CCN1CCC(NC(=O)Cc2csc(C(C)(C)C)n2)CC1,24.8
17,Cc1cc(NC(=O)Nc2ccc3c(ccn3CCN(C)C)c2)n(C)n1,2.58
18,Cn1cccc1-c1nnc(C2(c3ccc4c(c3)OCO4)CCOCC2)o1,-9.42
19,c1cncc(-c2nnc(C3(c4ccc5c(c4)OCO5)CCOCC3)o2)c1,-15.4
20,CCCc1noc(CCC(=O)N2CCCC(c3ccn[nH]3)C2)n1 (stereo not given),-9.26
21,CCOCc1ccc(NC(=O)C(C)C)cc1,19.1
22,CCc1noc(CC)c1CC(=O)N1CCC(C(=O)NC(C)C)CC1,-3.58
23,CN(C)CCn1ccc2cc(NC(=O)NCc3ccon3)ccc21,-8.32
24,CCc1noc(C(C)SCCS(C)(=O)=O)n1 (stereo not given),-7.13

row,SMILES,cytotoxicity at 70.5 h [%]
1,CCOCCCC(=O)NCC(c1ccccc1)N1CCc2sccc2C1 (stereo not given),16.8
2,CC(C)(C)c1nc(CC(=O)NC2CCN(C3CC3)C2)cs1 (stereo not given),-6.08
3,CCCNC(=O)CN1CCOC(CC)C1 (stereo not given),-15.7
4,CCC1CN(CC(=O)NC(C)C)CCO1 (stereo not given),-10.4
5,CCC1CN(CC(=O)NCCOC)CCO1 (stereo not given),-4.46
6,CN1CCC(N(C)c2ccccc2CNCc2ccco2)CC1,30.3
7,Cc1noc(C)c1CNCc1ccccc1N(C)C1CCN(C)CC1,-4.38
8,CCN(CCc1nccs1)C(=O)c1ncoc1C,-13.2
9,O=C(CCCc1nc(C2CC2)no1)N1CCCC(c2ccn[nH]2)C1 (stereo not given),-7.72
10,COCCN(Cc1ccccn1)C(=O)c1ccc(=O)n(C)c1,1.44
11,CCN(Cc1cccs1)C(=O)c1ccc(=O)n(C)c1,1.17
12,O=C(CCN1C(=O)CCC1=O)Nc1ccc(OCC(F)(F)F)nc1,-0.0202
13,COc1c(Cl)cc(C(=O)NCCNc2ncccn2)cc1Cl,20.5
14,Cc1noc(CCCC(=O)Nc2cc(C(F)(F)F)c[nH]c2=O)n1,-3.91
15,CNC(=O)c1ccc(NC(=O)NC(C)c2cc(C)oc2C)c(C)c1 (stereo not given),-5.7
16,O=C(CCc1ccccc1)N1CCC(c2n[nH]c(C3CC3)n2)CC1,-7.31
17,COc1cc(OC)cc(C(=O)NCCCNc2ncccn2)c1,-7.17
18,NC(=O)C1=NC2=NS(=O)(=O)c3ccccc3N2N1Cc1ccc(Cl)cc1,1.74
19,Cn1c(N)nnc1SCc1ccc(Cl)cc1Br,-11.2
20,Cc1ccc(CNC(=O)c2c[nH]nc2NC(=O)C2COCCO2)cc1 (stereo not given),-0.405
21,CCCNC(=O)CCC(=O)N1CCC(c2n[nH]c(C3CC3)n2)CC1,21.7
22,O=C(NCc1ccccc1OCC1CC1)C1CCOC1 (stereo not given),1.2
23,CCOc1cc(NC(=O)N(C)Cc2ncnn2C)ccc1C,20.6
24,CCOc1ccc(NC2CCN(C(C)C)C2=O)cn1 (stereo not given),-3.98

row,SMILES,cytotoxicity at 70.5 h [%]
1,COc1ccc(NC2CCN(C3CC3)C2=O)cn1 (stereo not given),5.36
2,CCC(C)Oc1cc(C(=O)Nc2nnc(C(C)C)[nH]2)ccn1 (stereo not given),3.52
3,CC(=O)N(CCc1ccccc1)CC(=O)NC(C)(C)C#N,-2.72
4,CCN(C(=O)NCc1cccnc1N(C)C)C(C)c1cccnc1 (stereo not given),-8.8
5,Cc1nc(CNC2CCN(Cc3ccccc3)C2)sc1C (stereo not given),-4.16
6,CCC1COCCN1C(=O)NCc1cccc(-c2cnn(C)c2)c1 (stereo not given),-6.22
7,CCn1nc(C(=O)N2CCCC2c2noc(C3CC3)n2)ccc1=O (stereo not given),12.1
8,Cc1cccc(N(CCC#N)S(=O)(=O)CC2CCCCO2)c1 (stereo not given),34.5
9,CCCn1nc(C(=O)N2CCCC2c2noc(C)n2)ccc1=O (stereo not given),-0.244
10,N#CCCNC(=O)CN1CCC(c2cc3ccccc3[nH]2)CC1,-10.1
11,CN(C(=O)CN1CCC(c2cc3ccccc3[nH]2)CC1)C(C)(C)C#N,-16.1
12,CN(CCC#N)C(=O)CN1CCC(c2cc3ccccc3[nH]2)CC1,4.21
13,Cc1cc(NC(C)C(=O)NCc2ccccc2)nc(-c2ccncc2)n1 (stereo not given),-13.1
14,CCN(CC)c1ccc(C(=O)NCC2(C(N)=O)CCOCC2)cn1,-4.92
15,O=C(NC1CCN(c2ncccn2)CC1)c1cc2c([nH]c1=O)CCC2,-10.7
16,CN(CC(F)(F)F)C(=O)CN1CCC(c2cc3ccccc3[nH]2)CC1,-25
17,O=C(CN1CCc2[nH]c3ccccc3c2C1)NCc1ccco1,-10.8
18,CN(C)C(=O)C1CCN(Cn2ccc(-c3ccc(F)cc3)n2)CC1,-12.5
19,CN1CCCC(N2CCN(c3cc(C(F)(F)F)ccn3)CC2)C1 (stereo not given),-5.61
20,Cc1ccc(N2CCC(NCc3cnc(C4CCC4)s3)CC2)nc1,6.63
21,CCC(C)NC(=O)CCc1ccnc2ccccc12 (stereo not given),2.59
22,O=C(NCc1ccc2c(c1)OCO2)N1CCCC2(C1)OCCO2,-7.83
23,COc1c(Br)cccc1CCNC(=O)c1csnn1,-11.9
24,Cn1ccc(CNC(=O)N2CCC(C3(C)OCCO3)CC2)c1,-8.7

row,SMILES,cytotoxicity at 70.5 h [%]
1,CSCCC(NC(=O)c1ccc2ccccc2n1)C(=O)N(C)C (stereo not given),18
2,COCC(C)N(C)C(=O)NC1CCN(S(C)(=O)=O)CC1 (stereo not given),-6.45
3,CSCCC(NC(=O)c1ccc2ccccc2n1)C(=O)NC(C)C (stereo not given),-3.96
4,CCN(CCC(=O)OC)S(=O)(=O)c1cnc2c(c1)c(C)nn2C,-4.3
5,O=C(NCC1CCCCO1)c1ccc(-c2ccco2)[nH]c1=O (stereo not given),-8.49
6,Cc1ccc(C(=O)NCC2CCCCO2)c(=O)[nH]1 (stereo not given),-3.97
7,Cc1nccn1-c1ccc(CNC(=O)c2ccc(O)nc2)cn1,-9.46
8,O=C(NCC1CCCCO1)c1ccc(-c2cccs2)[nH]c1=O (stereo not given),-0.0205
9,CN(C1CCN(c2ccccn2)CC1)S(=O)(=O)N1CCOCC1,-7.57
10,CC(C)C(C)(C#N)NC(=O)Cn1cc(I)cn1 (stereo not given),-3.37
11,CN(Cc1cc(F)ccc1F)CC(C)(CO)CO,-5.92
12,Cc1nnc(SCCC(=O)N(C)Cc2c(F)cccc2Cl)[nH]1,-3.01
13,Cc1nnc(CN(Cc2ccc(Cl)c(Cl)c2)C(C)C)o1,-14
14,Cc1cccc(C2(NCCCS(C)(=O)=O)CCCC2)c1,-6.96
15,Cc1noc(CNc2c(N3CCCC3)cccc2N2CCCC2)n1,7.99
16,Cc1nnc(SCCC(=O)N(C)Cc2ccc(Cl)s2)[nH]1,-14.2
17,CN(Cc1cc(F)ccc1C#N)CC(C)(CO)CO,-4.66
18,COC1CCC(N(C)c2ccnc(N(C)C)n2)CC1 (stereo not given),-7.23
19,N#Cc1c(F)cccc1N1CCN(C(=O)Nc2nncs2)CC1,11.5
20,O=C(Nc1ccnn1Cc1ccccc1Cl)C1CCS(=O)(=O)C1 (stereo not given),-17
21,COc1ccc(CNCCn2c(C)nc3ccccc32)cc1O,-8.82
22,Cc1nc2ccccc2n1CCNCc1cccc(C#N)c1,-14.8
23,O=C(CN1CCc2sccc2C1)Nc1nccs1,-18.3
24,Cc1sc(Br)cc1S(=O)(=O)NCCN,-7.86
